# Experimental data from article PMC2409929 (British Journal of Cancer, 2004).
# Experiment: Population pharmacokinetics, plasma total irinotecan and SN-38 (HPLC, NONMEM), first course
# Assay type: in vivo
# Settings: human, iv
# Protocol: A pharmacokinetic evaluation was performed using a population approach; 88 patients from arms A, B and C were evaluated during the first course of treatment. The sampling strategy consisted of three different sampling schedules (with three sampling times in each): schedule 1: 30 min before the end of the infusion, 5 min and 3–4 h post-infusion; schedule 2: 30 min before the end of the infusion, 10 min and 5–7 h post-infusion; schedule 3: 5 min before the end of the infusion, 30 min and 20–24 h post-infusion. In a few cases, an additional sample was taken in schedules 1 and 2 after 24 h. All patients at one site were sampled according to the same schedule. The aim of the sampling strategy was to define the full kinetic profile over the whole population, by drawing a small number of samples at different times from a large number of patients.
# Blood samples (5 ml) were collected in heparinised tubes and immediately immersed in ice-water. Plasma was obtained by centrifugation of the samples (5 min; 3000 r.p.m., 4°C) and stored at −20°C or lower until analysis. […] Pharmacokinetic parameters were determined by the Bayesian approach with the concentration–time data from each patient, and a population model previously defined.
# Otherwise, they were analysed by nonparametric methods. […] All tests for significance were two-tailed.
# [1] = arm A, 350 mg m^−2 90-min i.v. infusion, N=30, mean±s.d.
# [2] = arm B, 125 mg m^−2 90-min i.v. infusion, N=28, mean±s.d.
# [3] = arm C, 250 mg m^−2 90-min i.v. infusion, N=30, mean±s.d.
smiles,measurement,setting,value
CCc1c2c(nc3ccc(OC(=O)N4CCC(N5CCCCC5)CC4)cc13)-c1cc3c(c(=O)n1C2)COC(=O)[C@]3(O)CC [irinotecan],AUC,[1],47.8 ± 19 µM·h
same,Cmax,[1],7.91 ± 1.1 µM
same,AUC,[2],14.6 ± 6.9 µM·h
same,Cmax,[2],2.62 ± 0.39 µM
same,AUC,[3],32.7 ± 13.5 µM·h
same,Cmax,[3],5.52 ± 0.9 µM
